Experimental data taken from US20220047594A1, “METHOD FOR TREATING INTERSTITIAL LUNG DISEASE” (ALTAVANT SCIENCES GmbH, priority 2018, published 2022).

Columns and labels:
[1] = target: T1, TPH1 (Mus musculus, UniProt P17532); settings: amorphous form, U.S. Pat. No. 9,199,994 Example 63i and Table 27; cited from earlier work
T1 construct: host or cells: mice (in vivo)
T1 sequence (P17532 1-447): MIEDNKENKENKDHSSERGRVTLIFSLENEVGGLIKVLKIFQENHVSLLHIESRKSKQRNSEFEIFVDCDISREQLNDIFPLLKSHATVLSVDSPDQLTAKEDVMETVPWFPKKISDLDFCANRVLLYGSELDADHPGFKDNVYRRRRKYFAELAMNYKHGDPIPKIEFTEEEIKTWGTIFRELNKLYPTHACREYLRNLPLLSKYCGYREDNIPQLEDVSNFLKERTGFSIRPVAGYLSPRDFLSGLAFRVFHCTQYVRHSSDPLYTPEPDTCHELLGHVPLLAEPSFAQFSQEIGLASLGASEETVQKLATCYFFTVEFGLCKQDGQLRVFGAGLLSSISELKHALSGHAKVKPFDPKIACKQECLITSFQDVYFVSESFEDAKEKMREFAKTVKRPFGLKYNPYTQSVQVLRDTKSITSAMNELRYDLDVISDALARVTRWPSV

[2] = test system: bleomycin-induced mouse model; settings: inflammatory phase and fibrogenic phase; cited from earlier work
[3] = stability and shelf life of the crystalline polymorphs of Compound A; type: physicochemical; settings: compared to the crystalline Form 1 polymorph; particularly at temperatures of less than 95° C.
Text: The compound may be used to prevent or treat IPF in either an amorphous or crystalline form. Two different polymorph crystalline forms are identified by x-ray powder diffraction patterns set forth in FIG. 1 (Form 3) and FIG. 2 (Form 1) as well as Tables 1 and 2 (Form 3) and Tables 3 and 4 (Form 1).

[4] = test system: bleomycin-induced mouse model; settings: cited from earlier work

Compound: CCOC(=O)[C@@H]1CC2(CCN(c3cc(O[C@H](c4ccc(Cl)cc4-c4ccccc4)C(F)(F)F)nc(N)n3)CC2)CN1 [Compound A, (S)-ethyl 8-(2-amino-6-((R)-1-(5-chloro-[1,1′-biphenyl]-2-yl)-2,2,2-trifluoroethoxy)pyrimidin-4-yl)-2,8-diazaspiro[4.5]decane-3-carboxylate]
- efficacy in inhibiting TPH1 in mice [1]: demonstrated

Compound: CC1CCN(CC[C@H]2CCCN2S(=O)(=O)c2cccc(O)c2)CC1 [SB-269970]
- efficacy in attenuating pulmonary fibrosis [2]: attenuating in both the inflammatory phase and the fibrogenic phase

Compound: CCOC(=O)[C@@H]1CC2(CCN(c3cc(O[C@H](c4ccc(Cl)cc4-c4ccccc4)C(F)(F)F)nc(N)n3)CC2)CN1 [crystalline Form 3, (S)-ethyl 8-(2-amino-6-((R)-1-(5-chloro-[1,1′-biphenyl]-2-yl)-2,2,2-trifluoroethoxy)pyrimidin-4-yl)-2,8-diazaspiro[4.5]decane-3-carboxylate]
- stability and shelf life [3]: substantially greater stability and shelf life

Compound: CCN(CC)C(=O)N[C@H]1C[C@@H]2c3cccc4[nH]cc(c34)C[C@H]2N(C)C1 [terguride]
- lung function, histology and collagen content ([4]; bleomycin-induced mouse model, treated mice): improved lung function and histology and collagen content
- tolerability ([4]; mouse, in vivo): well-tolerated
- efficacy in attenuating pulmonary fibrosis [2]: attenuating in both the inflammatory phase and the fibrogenic phase
